{"source": "patent EP0003353A1", "about": "“A pharmaceutical composition for oral administration for treating hypertension” (Merck & Co., Inc., priority 1978, dated 1979)", "test_system": "spontaneously hypertensive (SH) rats", "test": "Mean arterial pressure of conscious SH rats, direct measurement by cannulation of the caudal artery", "assay_type": "in vivo", "settings": "for Mean arterial pressure at hours after treatment 0: 0 h; for Mean arterial pressure at hours after treatment 1/2: 1/2 h; for Mean arterial pressure at hours after treatment 1: 1 h; for Mean arterial pressure at hours after treatment 2: 2 h; for Mean arterial pressure at hours after treatment 4: 4 h; for Mean arterial pressure at hours after treatment 8: 8 h; for Mean arterial pressure at hours after treatment 12: 12 h; for Mean arterial pressure at hours after treatment 18: 18 h; for Mean arterial pressure at hours after treatment 24: 24 h", "description": "The test procedure used is substantially as follows: • The test animals used were conscious, male, SH rats weighing about 290 to about 340 grams. The arterial blood pressure was measured by a direct technique involving cannulation of the caudal artery. Initial blood pressure reading was recorded. The decarboxylase inhibitor was then administered intraperitoneally (i.p.) and about 5 minutes later the L-a-methyl-p-tyrosine was given [(i.p. or orally (p.o.)]. The blood pressure was then continuously recorded at 1/2 hour intervals for 24 hours. The effect on blood pressure of the decarboxylase inhibitor and the L-a-methyl-p-tyrosine alone was also obtained by this test method. The results of representative tests are in the following table: […]", "key": {"[1]": {"settings": "Test No. 2, Carbidopa 25 mg/kg i.p."}, "[2]": {"settings": "Test No. 13, Carbidopa 25 mg/kg i.p."}, "[3]": {"settings": "Test No. 3, α-methyl-p-tyrosine 5 mg/kg i.p."}, "[4]": {"settings": "Test No. 4, α-methyl-p-tyrosine 20 mg/kg i.p."}, "[5]": {"settings": "Test No. 5, α-methyl-p-tyrosine 40 mg/kg i.p."}, "[6]": {"settings": "Test No. 6, α-methyl-p-tyrosine 80 mg/kg i.p."}, "[7]": {"settings": "Test No. 14, α-Methyl-p-tyrosine 80 mg/kg p.o."}}}
{"compound": "C[C@@](Cc1ccc(O)c(O)c1)(NN)C(=O)O", "note": "[Carbidopa]", "values": [{"measurement": "Mean arterial pressure at hours after treatment 0", "setting": "[1]", "value": 167, "unit": "mm Hg"}, {"measurement": "Mean arterial pressure at hours after treatment 1/2", "setting": "[1]", "value": 166, "unit": "mm Hg"}, {"measurement": "Mean arterial pressure at hours after treatment 1", "setting": "[1]", "value": 164, "unit": "mm Hg"}, {"measurement": "Mean arterial pressure at hours after treatment 2", "setting": "[1]", "value": 166, "unit": "mm Hg"}, {"measurement": "Mean arterial pressure at hours after treatment 4", "setting": "[1]", "value": 158, "unit": "mm Hg"}, {"measurement": "Mean arterial pressure at hours after treatment 8", "setting": "[1]", "value": 167, "unit": "mm Hg"}, {"measurement": "Mean arterial pressure at hours after treatment 12", "setting": "[1]", "value": 172, "unit": "mm Hg"}, {"measurement": "Mean arterial pressure at hours after treatment 18", "setting": "[1]", "value": 172, "unit": "mm Hg"}, {"measurement": "Mean arterial pressure at hours after treatment 24", "setting": "[1]", "value": 162, "unit": "mm Hg"}, {"measurement": "Mean arterial pressure at hours after treatment 0", "setting": "[2]", "value": 184, "unit": "mm Hg"}, {"measurement": "Mean arterial pressure at hours after treatment 1/2", "setting": "[2]", "value": 184, "unit": "mm Hg"}, {"measurement": "Mean arterial pressure at hours after treatment 1", "setting": "[2]", "value": 180, "unit": "mm Hg"}, {"measurement": "Mean arterial pressure at hours after treatment 2", "setting": "[2]", "value": 178, "unit": "mm Hg"}, {"measurement": "Mean arterial pressure at hours after treatment 4", "setting": "[2]", "value": 177, "unit": "mm Hg"}, {"measurement": "Mean arterial pressure at hours after treatment 8", "setting": "[2]", "value": 184, "unit": "mm Hg"}, {"measurement": "Mean arterial pressure at hours after treatment 12", "setting": "[2]", "value": 183, "unit": "mm Hg"}, {"measurement": "Mean arterial pressure at hours after treatment 18", "setting": "[2]", "value": 185, "unit": "mm Hg"}, {"measurement": "Mean arterial pressure at hours after treatment 24", "setting": "[2]", "value": 182, "unit": "mm Hg"}]}
{"compound": "C[C@](N)(Cc1ccc(O)cc1)C(=O)O", "note": "[α-methyl-p-tyrosine, L-α-methyl-p-tyrosine]", "values": [{"measurement": "Mean arterial pressure at hours after treatment 0", "setting": "[3]", "value": 165, "unit": "mm Hg"}, {"measurement": "Mean arterial pressure at hours after treatment 1/2", "setting": "[3]", "value": 155, "unit": "mm Hg"}, {"measurement": "Mean arterial pressure at hours after treatment 1", "setting": "[3]", "value": 162, "unit": "mm Hg"}, {"measurement": "Mean arterial pressure at hours after treatment 2", "setting": "[3]", "value": 160, "unit": "mm Hg"}, {"measurement": "Mean arterial pressure at hours after treatment 4", "setting": "[3]", "value": 161, "unit": "mm Hg"}, {"measurement": "Mean arterial pressure at hours after treatment 8", "setting": "[3]", "value": 167, "unit": "mm Hg"}, {"measurement": "Mean arterial pressure at hours after treatment 12", "setting": "[3]", "value": 164, "unit": "mm Hg"}, {"measurement": "Mean arterial pressure at hours after treatment 18", "setting": "[3]", "value": 168, "unit": "mm Hg"}, {"measurement": "Mean arterial pressure at hours after treatment 24", "setting": "[3]", "value": 164, "unit": "mm Hg"}, {"measurement": "Mean arterial pressure at hours after treatment 0", "setting": "[4]", "value": 165, "unit": "mm Hg"}, {"measurement": "Mean arterial pressure at hours after treatment 1/2", "setting": "[4]", "value": 152, "unit": "mm Hg"}, {"measurement": "Mean arterial pressure at hours after treatment 1", "setting": "[4]", "value": 159, "unit": "mm Hg"}, {"measurement": "Mean arterial pressure at hours after treatment 2", "setting": "[4]", "value": 157, "unit": "mm Hg"}, {"measurement": "Mean arterial pressure at hours after treatment 4", "setting": "[4]", "value": 146, "unit": "mm Hg"}, {"measurement": "Mean arterial pressure at hours after treatment 8", "setting": "[4]", "value": 156, "unit": "mm Hg"}, {"measurement": "Mean arterial pressure at hours after treatment 12", "setting": "[4]", "value": 155, "unit": "mm Hg"}, {"measurement": "Mean arterial pressure at hours after treatment 18", "setting": "[4]", "value": 161, "unit": "mm Hg"}, {"measurement": "Mean arterial pressure at hours after treatment 24", "setting": "[4]", "value": 166, "unit": "mm Hg"}, {"measurement": "Mean arterial pressure at hours after treatment 0", "setting": "[5]", "value": 166, "unit": "mm Hg"}, {"measurement": "Mean arterial pressure at hours after treatment 1/2", "setting": "[5]", "value": 148, "unit": "mm Hg"}, {"measurement": "Mean arterial pressure at hours after treatment 1", "setting": "[5]", "value": 152, "unit": "mm Hg"}, {"measurement": "Mean arterial pressure at hours after treatment 2", "setting": "[5]", "value": 145, "unit": "mm Hg"}, {"measurement": "Mean arterial pressure at hours after treatment 4", "setting": "[5]", "value": 135, "unit": "mm Hg"}, {"measurement": "Mean arterial pressure at hours after treatment 8", "setting": "[5]", "value": 140, "unit": "mm Hg"}, {"measurement": "Mean arterial pressure at hours after treatment 12", "setting": "[5]", "value": 134, "unit": "mm Hg"}, {"measurement": "Mean arterial pressure at hours after treatment 18", "setting": "[5]", "value": 130, "unit": "mm Hg"}, {"measurement": "Mean arterial pressure at hours after treatment 24", "setting": "[5]", "value": 135, "unit": "mm Hg"}, {"measurement": "Mean arterial pressure at hours after treatment 0", "setting": "[6]", "value": 167, "unit": "mm Hg"}, {"measurement": "Mean arterial pressure at hours after treatment 1/2", "setting": "[6]", "value": 166, "unit": "mm Hg"}, {"measurement": "Mean arterial pressure at hours after treatment 1", "setting": "[6]", "value": 158, "unit": "mm Hg"}, {"measurement": "Mean arterial pressure at hours after treatment 2", "setting": "[6]", "value": 146, "unit": "mm Hg"}, {"measurement": "Mean arterial pressure at hours after treatment 4", "setting": "[6]", "value": 138, "unit": "mm Hg"}, {"measurement": "Mean arterial pressure at hours after treatment 8", "setting": "[6]", "value": 131, "unit": "mm Hg"}, {"measurement": "Mean arterial pressure at hours after treatment 12", "setting": "[6]", "value": 130, "unit": "mm Hg"}, {"measurement": "Mean arterial pressure at hours after treatment 18", "setting": "[6]", "value": 136, "unit": "mm Hg"}, {"measurement": "Mean arterial pressure at hours after treatment 24", "setting": "[6]", "value": 130, "unit": "mm Hg"}, {"measurement": "Mean arterial pressure at hours after treatment 0", "setting": "[7]", "value": 169, "unit": "mm Hg"}, {"measurement": "Mean arterial pressure at hours after treatment 1/2", "setting": "[7]", "value": 165, "unit": "mm Hg"}, {"measurement": "Mean arterial pressure at hours after treatment 1", "setting": "[7]", "value": 166, "unit": "mm Hg"}, {"measurement": "Mean arterial pressure at hours after treatment 2", "setting": "[7]", "value": 161, "unit": "mm Hg"}, {"measurement": "Mean arterial pressure at hours after treatment 4", "setting": "[7]", "value": 143, "unit": "mm Hg"}, {"measurement": "Mean arterial pressure at hours after treatment 8", "setting": "[7]", "value": 147, "unit": "mm Hg"}, {"measurement": "Mean arterial pressure at hours after treatment 12", "setting": "[7]", "value": 161, "unit": "mm Hg"}, {"measurement": "Mean arterial pressure at hours after treatment 18", "setting": "[7]", "value": 165, "unit": "mm Hg"}, {"measurement": "Mean arterial pressure at hours after treatment 24", "setting": "[7]", "value": 173, "unit": "mm Hg"}]}
